Data from paper PMC9864776, “Synthesis of Novel Polymer-Assisted Organic-Inorganic Hybrid Nanoflowers and Their Application in Cascade Biocatalysis” (Molecules, 2023).

Target: T1, horseradish peroxidase (HRP) (Armoracia rusticana, UniProt P00433)
T1 construct: gene PRXC1A; commercial native enzyme from horseradish, Alfa Aesar; free in solution, together with GOx
T1 sequence (P00433 31-338): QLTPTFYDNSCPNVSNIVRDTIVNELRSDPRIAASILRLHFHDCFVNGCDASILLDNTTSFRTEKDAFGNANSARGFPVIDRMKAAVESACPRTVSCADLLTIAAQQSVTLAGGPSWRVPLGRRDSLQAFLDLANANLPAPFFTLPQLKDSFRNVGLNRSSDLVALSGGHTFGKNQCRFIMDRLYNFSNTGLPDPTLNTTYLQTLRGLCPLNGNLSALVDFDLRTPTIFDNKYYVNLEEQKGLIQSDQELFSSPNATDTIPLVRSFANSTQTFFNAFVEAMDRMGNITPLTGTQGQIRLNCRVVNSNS
Assay: GOx/HRP cascade, TMB oxidation by H2O2 formed by GOx, absorbance at […] nm
Format: biochemical
Details: H2O2 from GOx and glucose, 0.2 M acetate buffer pH 4, 20-23 °C; free enzymes

Cc1cc(-c2cc(C)c(N)c(C)c2)cc(C)c1N [TMB, 3,3′,5,5′-tetramethylbenzidine]
GOx/HRP cascade, TMB oxidation by H2O2 formed by GOx, absorbance at 652 nm: the HRP used this H2O2 to oxidize a chromophore compound (TMB)
